Reference: PubChem BioAssay AID248 (DTP/NCI, 2004)
“And” between values parts separate entries of the source, which are not always exact repeats. Equal values may be shown once. Toxic doses and inconclusive results are not listed. No stated cut-off is given here; in the data, active means T/C of 150% or more; inactive means T/C below 125%.

Tested on: L1210 leukemia ip in BDF1 mice, survival T/C
Assay: NCI In Vivo Anticancer Drug Screen. Data for tumor model L1210 Leukemia (intraperitoneal) in B6D2F1 (BDF1) mice
Conditions: endpoint: mean survival time, higher = longer survival
How it was run: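 Transplantable tumor model; survival measured in treated vs vehicle control mice. Value = treated/control.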

[1] = dose: 12.5 mg/kg/injection, schedule: Q01DX009 (ip), vehicle: saline with Tween-80
[2] = dose: 25.0 mg/kg/injection, schedule: Q01DX009 (ip), vehicle: saline with Tween-80
[3] = dose: 50.0 mg/kg/injection, schedule: Q01DX009 (ip), vehicle: saline with Tween-80
[4] = dose: 100.0 mg/kg/injection, schedule: Q01DX009 (ip), vehicle: saline with Tween-80
[5] = dose: 100.0 mg/kg/injection, schedule: Q04DX002 (ip), vehicle: saline with Tween-80
[6] = dose: 100.0 mg/kg/injection, schedule: Q04DX003 (ip), vehicle: saline with Tween-80
[7] = dose: 200.0 mg/kg/injection, schedule: Q01DX009 (ip), vehicle: saline with Tween-80
[8] = dose: 200.0 mg/kg/injection, schedule: Q04DX003 (ip), vehicle: saline with Tween-80
[9] = dose: 400.0 mg/kg/injection, schedule: Q04DX003 (ip), vehicle: saline with Tween-80
[10] = dose: 100.0 mg/kg/injection, schedule: Q04DX002 (ip), vehicle: Klucel (hydroxypropylcellulose) (HPC)
[11] = dose: 100.0 mg/kg/injection, schedule: Q04DX003 (ip), vehicle: Klucel (hydroxypropylcellulose) (HPC)
[12] = dose: 200.0 mg/kg/injection, schedule: Q04DX002 (ip), vehicle: Klucel (hydroxypropylcellulose) (HPC)
[13] = dose: 400.0 mg/kg/injection, schedule: Q04DX002 (ip), vehicle: Klucel (hydroxypropylcellulose) (HPC)
[14] = dose: 100.0 mg/kg/injection, schedule: Q01DX001 (ip), vehicle: carboxymethylcellulose (CMC)
[15] = dose: 200.0 mg/kg/injection, schedule: Q01DX001 (ip), vehicle: carboxymethylcellulose (CMC)
[16] = dose: 400.0 mg/kg/injection, schedule: Q01DX001 (ip), vehicle: carboxymethylcellulose (CMC)
[17] = dose: 100.0 mg/kg/injection, schedule: Q01DX001 (ip), vehicle: saline
[18] = dose: 200.0 mg/kg/injection, schedule: Q01DX001 (ip), vehicle: saline
[19] = dose: 200.0 mg/kg/injection, schedule: Q04DX003 (ip), vehicle: Klucel (hydroxypropylcellulose) (HPC)
[20] = dose: 400.0 mg/kg/injection, schedule: Q04DX003 (ip), vehicle: Klucel (hydroxypropylcellulose) (HPC)
[21] = dose: 100.0 mg/kg/injection, schedule: Q04DX003 (ip), vehicle: saline
[22] = dose: 200.0 mg/kg/injection, schedule: Q04DX003 (ip), vehicle: saline
[23] = dose: 400.0 mg/kg/injection, schedule: Q04DX003 (ip), vehicle: saline

Measured: T/C

CC(C(=O)O)c1ccccc1 (stereo unspecified)
inactive: [1] 95 % of control | [2] 95 % of control | [3] 95 % of control and 90 % of control

CC1C(=O)c2cc3c(cc2CCN(C)Cc2c1ccc1c2OCO1)OCO3 (stereo unspecified)
inactive: dose: 5.0 mg/kg/injection, schedule: Q01DX001 (ip), vehicle: saline 103 % of control | dose: 9.5 mg/kg/injection, schedule: Q01DX001 (ip), vehicle: other 93 % of control | dose: 10.0 mg/kg/injection, schedule: Q01DX001 (ip), vehicle: saline 103 % of control | dose: 19.0 mg/kg/injection, schedule: Q01DX001 (ip), vehicle: other 104 % of control | dose: 20.0 mg/kg/injection, schedule: Q01DX001 (ip), vehicle: saline 101 % of control | dose: 40.0 mg/kg/injection, schedule: Q01DX001 (ip), vehicle: saline 101 % of control

Cc1cccc(NC(=O)OC/C=C/c2ccccc2)c1
inactive: dose: 100.0 mg/kg/injection, schedule: Q01DX001 (ip), vehicle: saline with Tween-80 114 % of control | [4] 102 % of control and 103 % of control | [5] 105 % of control and 108 % of control | [6] 86 % of control | dose: 200.0 mg/kg/injection, schedule: Q01DX001 (ip), vehicle: saline with Tween-80 103 % of control | [7] 95 % of control and 96 % of control | dose: 200.0 mg/kg/injection, schedule: Q04DX002 (ip), vehicle: saline with Tween-80 95 % of control and 105 % of control | [8] 90 % of control | dose: 400.0 mg/kg/injection, schedule: Q01DX001 (ip), vehicle: saline with Tween-80 97 % of control | dose: 400.0 mg/kg/injection, schedule: Q01DX009 (ip), vehicle: saline with Tween-80 90 % of control | dose: 400.0 mg/kg/injection, schedule: Q04DX002 (ip), vehicle: saline with Tween-80 95 % of control and 105 % of control | [9] 86 % of control

O=C(Nc1ccccc1F)Sc1c(Cl)c(Cl)nc(Cl)c1Cl
inactive: dose: 25.0 mg/kg/injection, schedule: Q01DX009 (ip), vehicle: Klucel (hydroxypropylcellulose) (HPC) 96 % of control and 101 % of control | dose: 25.0 mg/kg/injection, schedule: Q04DX003 (ip), vehicle: Klucel (hydroxypropylcellulose) (HPC) 105 % of control | dose: 50.0 mg/kg/injection, schedule: Q01DX009 (ip), vehicle: Klucel (hydroxypropylcellulose) (HPC) 94 % of control and 101 % of control | dose: 50.0 mg/kg/injection, schedule: Q04DX003 (ip), vehicle: Klucel (hydroxypropylcellulose) (HPC) 102 % of control | [10] 101 % of control and 107 % of control | [11] 113 % of control | [12] 96 % of control and 106 % of control | [13] 103 % of control and 115 % of control

COc1ccc(Br)cc1CCC=O
inactive: [14] 100 % of control | [15] 100 % of control | [16] 100 % of control

CC(=O)Nc1ncnc2c1ncn2Cc1ccccc1
inactive: [6] 99 % of control | [8] 93 % of control

COc1cccc(CCC(=O)c2ccccc2)c1
inactive: [10] 106 % of control | [12] 90 % of control | [13] 94 % of control

CCCCN(CCCC)CCCCCN
inactive: dose: 25.0 mg/kg/injection, schedule: Q01DX Z (ip), vehicle: carboxymethylcellulose (CMC) 106 % of control | dose: 50.0 mg/kg/injection, schedule: Q01DX Z (ip), vehicle: carboxymethylcellulose (CMC) 86 % of control | dose: 100.0 mg/kg/injection, schedule: Q01DX Z (ip), vehicle: carboxymethylcellulose (CMC) 90 % of control

COc1ccc(C(C)c2ccc(OC)cc2)cc1
inactive: [6] 93 % of control | [8] 95 % of control | [9] 91 % of control

CC(C)C1(O)C2C3CCC(C3)C2C(=O)C2C3CCC(C3)C21 (stereo unspecified)
inactive: [3] 96 % of control | [4] 93 % of control | [7] 93 % of control

Nc1ccc(CCCCc2ccccc2)c(Cl)c1
inactive: dose: 75.0 mg/kg/injection, schedule: Q01DX001 (ip), vehicle: saline 90 % of control | dose: 150.0 mg/kg/injection, schedule: Q01DX001 (ip), vehicle: saline 96 % of control

O=C(O)c1ccccc1N=Cc1ccccc1O.[Co]
inactive: dose: 100.0 mg/kg/injection, schedule: Q01DX001 (ip), vehicle: other 102 % of control | dose: 200.0 mg/kg/injection, schedule: Q01DX001 (ip), vehicle: other 112 % of control

C=C(C)C1CCC2(C(=O)OC)CCC3(C)C(CCC4C5(C)CCC(OC6CCCCO6)C(C)(C)C5CCC43C)C12 (stereo unspecified)
inactive: dose: 25.0 mg/kg/injection, schedule: Q04DX002 (ip), vehicle: saline with Tween-80 86 % of control | [5] 86 % of control

CC1CN(C2CC3OCC3O2)C(=O)NC1=O (stereo unspecified)
inactive: [17] 103 % of control | [18] 98 % of control | dose: 400.0 mg/kg/injection, schedule: Q01DX001 (ip), vehicle: saline 98 % of control

[CH3][Pb]([CH3])([CH3])[NH]C#N
inactive: dose: 5.0 mg/kg/injection, schedule: Q04DX003 (ip), vehicle: saline 101 % of control | dose: 10.0 mg/kg/injection, schedule: Q04DX003 (ip), vehicle: saline 86 % of control

COc1cc(/C=N/NC(=O)c2ccccc2Cl)ccc1O
inactive: [1] 91 % of control | [2] 88 % of control | [3] 95 % of control and 97 % of control

O/N=C/c1ccc(Cl)cc1
inactive: dose: 50.0 mg/kg/injection, schedule: Q01DX001 (ip), vehicle: saline 97 % of control | [17] 100 % of control | [18] 94 % of control

CC(=O)OCC1OC(OC(C)=O)C(OC(C)=O)C(OC(C)=O)C1OC(C)=O (stereo unspecified)
inactive: dose: 100.0 mg/kg/injection, schedule: Q01DX001 (ip), vehicle: Klucel (hydroxypropylcellulose) (HPC) 101 % of control | [11] 97 % of control | dose: 200.0 mg/kg/injection, schedule: Q01DX001 (ip), vehicle: Klucel (hydroxypropylcellulose) (HPC) 94 % of control | [19] 93 % of control | dose: 400.0 mg/kg/injection, schedule: Q01DX001 (ip), vehicle: Klucel (hydroxypropylcellulose) (HPC) 105 % of control | [20] 102 % of control

CCOC(=O)N(CC)c1ccccc1
inactive: dose: 100.0 mg/kg/injection, schedule: Q01DX009 (ip), vehicle: Klucel (hydroxypropylcellulose) (HPC) 103 % of control | [21] 88 % of control | dose: 200.0 mg/kg/injection, schedule: Q01DX009 (ip), vehicle: Klucel (hydroxypropylcellulose) (HPC) 107 % of control | [22] 101 % of control | dose: 400.0 mg/kg/injection, schedule: Q01DX009 (ip), vehicle: Klucel (hydroxypropylcellulose) (HPC) 102 % of control | [23] 98 % of control

Nc1nc(N)nc(-c2ccccc2N=NN2CCCCC2)n1
inactive: [11] 101 % of control | [19] 94 % of control | [20] 95 % of control

NNc1ccccc1Br
inactive: [21] 101 % of control | [22] 102 % of control

COc1cccc(CC2=C3CCCN(C(=O)c4ccccc4)C3CCC2=O)c1 (stereo unspecified)
inactive: dose: 100.0 mg/kg/injection, schedule: Q01DX009 (ip), vehicle: saline sonified 98 % of control | dose: 200.0 mg/kg/injection, schedule: Q01DX009 (ip), vehicle: saline sonified 96 % of control | dose: 400.0 mg/kg/injection, schedule: Q01DX009 (ip), vehicle: saline sonified 96 % of control

OCC1OC(Oc2cc(O)cc3[o+]c(-c4cc(O)c(O)c(O)c4)c(OC4(CO)OC(CO)C(O)C4O)cc23)C(O)C(O)C1O (stereo unspecified)
inactive: [14] 95 % of control | [15] 98 % of control | [16] 98 % of control

CCCCCCSC1=C(SCCCCCC)C(=O)c2[nH]cnc2C1=O
inactive: dose: 50.0 mg/kg/injection, schedule: Q01DX001 (ip), vehicle: carboxymethylcellulose (CMC) 100 % of control | [14] 95 % of control | [15] 90 % of control | [16] 90 % of control

ClCCC1CNCCN1 (stereo unspecified)
inactive: dose: 100.0 mg/kg/injection, schedule: Q01DX009 (ip), vehicle: saline 87 % of control | [21] 96 % of control | dose: 200.0 mg/kg/injection, schedule: Q01DX009 (ip), vehicle: saline 89 % of control | [22] 96 % of control | dose: 400.0 mg/kg/injection, schedule: Q01DX009 (ip), vehicle: saline 89 % of control | [23] 103 % of control
